For 3 molecules, IC50 results are on record in ChEMBL document CHEMBL1130735, “A paclitaxel analogue with a 2(3-->20)abeotaxane skeleton: synthesis and biological evaluation” (Bioorg Med Chem Lett, 1998).

Common to all, as to format: functional, cell-based
Experiment [1] in a line: Cytotoxicity was evaluated against […] cells.
Experiment [2] in a line: Cytotoxicity was evaluated against MEL28 melanoma cells. To be noted: Homo sapiens, SK-MEL-28.
Experiment [3] concerns P388. The experiment is described as follows: Cytotoxicity was evaluated against P388 mouse lymphoma cells.
In experiment [4] the test system is HT-29. As to the kind of experiment: Cytotoxicity was evaluated against HT-29 human colon adenocarcinoma cells.

For orientation: IC50 means the concentration that inhibits the measured activity by half. Higher therefore signals a need for much substance.

Molecules are shown by their SMILES. ≈ marks a conversion by molar mass, not a printed value.

Turning to `CC1=C2[C@@H](O)C(=O)[C@@]3(C)CC(C[C@H](OC(=O)c4ccccc4)[C@H](C[C@@H]1OC(=O)[C@H](O)[C@H](NC(=O)c1ccccc1)c1ccccc1)C2(C)C)[C@@H](O)C[C@@H]3O`, the IC50 in experiment [1], in experiment [2], in experiment [3] and in experiment [4] was 6 µg/mL (≈ 8.11 µM) in each case.

`CC(=O)O[C@H]1C[C@H]2[C@@H](OC(C)=O)/C=C3\C[C@](C)(C(=O)[C@H](O)C(=C1C)C2(C)C)[C@@H](O)C[C@@H]3O`: the half-inhibitory concentration (IC50) in experiment [1], in experiment [2], in experiment [3] and in experiment [4] was above 10 µg/mL throughout.

As for `CC(=O)O[C@H]1C(=O)[C@@]2(C)[C@H]([C@H](OC(=O)c3ccccc3)[C@]3(O)C[C@H](OC(=O)[C@H](O)[C@@H](NC(=O)c4ccccc4)c4ccccc4)C(C)=C1C3(C)C)[C@]1(OC(C)=O)CO[C@@H]1C[C@@H]2O` [PACLITAXEL], the 50% inhibitory concentration (IC50) in experiment [1] was found to be 0.002 µg/mL (≈ 0.00234 µM); in experiment [2] it was 0.002 µg/mL (≈ 0.00234 µM); in experiment [3] it was 0.2 µg/mL (≈ 0.234 µM); in experiment [4], 0.002 µg/mL (≈ 0.00234 µM).
